In experiment [1] the test system is p53 mutant Y220C. The following applies: in vitro; cited from earlier work.
The target in experiment [2] is p53 mutant Y220C. Conditions: binding to the mutation-induced crevice; cited from earlier work.
Another experiment has as its target T-p53-Y220C (Homo sapiens, UniProt P04637, M133L/N239Y/N268D/V203A/Y220C). The experiment is described as follows: 1H/15N-HSQC NMR titration. The experiment is classed as binding. The following applies: 20 °C, 75 μM protein.
For a further experiment, the target named is T-p53C-Y220C (Homo sapiens, UniProt P04637, M133L/N239Y/N268D/V203A/Y220C). The experiment is described as follows: Isothermal titration calorimetry. The experiment is classed as binding. Background: Isothermal titration calorimetry measures the heat released or taken up as one component is titrated into another.

Results on 2 compounds are retold here after article PMC3789257 (Journal of the American Chemical Society, 2012).

Sequence of T-p53C-Y220C (P04637 102-292 limits assumed, stated change not applied): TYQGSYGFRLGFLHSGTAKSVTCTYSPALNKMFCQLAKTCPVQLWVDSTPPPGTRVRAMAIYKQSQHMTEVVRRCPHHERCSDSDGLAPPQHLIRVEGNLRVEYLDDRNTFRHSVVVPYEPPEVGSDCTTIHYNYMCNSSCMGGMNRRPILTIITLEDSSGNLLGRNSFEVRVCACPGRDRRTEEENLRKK
Sequence of T-p53-Y220C (P04637 102-292 limits assumed, stated change not applied): as the sequence (P04637 102-292 limits assumed, stated change not applied) above

Take `CCn1c2ccccc2c2cc(CNC)ccc21` [PhiKan083]: the “effect on melting temperature of the protein” value with p53 mutant Y220C [1] was “raises the melting temperature”. On p53 mutant Y220C [2], the Kd (commonly the constant that tells how readily two partners part at equilibrium) is 150 µM.
Take `CN1CCC(N(C)Cc2cc(I)cc(I)c2O)CC1` [compound 3, 2,4-diiodo-6-((methyl(1-methylpiperidin-4-yl)amino)methyl)phenol]: the Kd on T-p53-Y220C amounted to 184 ± 23 µM; at T-p53C-Y220C, 225 µM.
